Values quoted from earlier work in patent US7968723B2, “Compounds, their preparation and use” (High Point Pharmaceuticals, LLC, priority 2004, dated 2011).

Assays:
C2C12 muscle cells = settings: in vitro treatment of C2C12 muscle cells; BioChem. Biophys. Acta 2003, 1633, 43-50; Mol. Endocrin. 2003, 17, 2477-2493
[1] = test system: high fat diet induced Insulin resistant mice and diabetic ob/ob; settings: PNAS 2003, 100, 15924-15929

Compound: Cc1cc(SCc2sc(-c3ccc(C(F)(F)F)cc3)nc2C)ccc1OCC(=O)O [GW501516]
- regulation of genes (TG hydrolysis, FFA oxidation, lipid utilization, energy expenditure, lipid efflux) (C2C12 muscle cells): regulation of genes involved with TG hydrolysis and FFA oxidation
- insulin sensitivity [1]: improved insulin sensitivity
- plasma glucose and insulin [1]: lowering of plasma glucose and insulin
